Holding throughout (type): cell-based, Propionibacterium acnes
The subject of assay [1] is HL053PA1 strain (RT4) and HL043PA1 strain (RT5) versus HL110PA3 strain (RT6). As to the kind of experiment: Strain-selective antibacterial activity (average of MICRT6/MICRT4 and MICRT6/MICRT5). Conditions: for Strain-selective antibacterial activity over the tested pH range, in words: tested pH range pH 5 to 7. The text has this:
Herein, “acne strain-selective antibacterial activity” or “strain-selective antibacterial activity” means an index indicating better inhibition of growth of a dominant strain in acne patients compared to that of a dominant strain in healthy subjects. It is expressed by the average value of the values (MICRT6/MICRT4, and MICRT6/MICRTS) obtained by dividing the minimum inhibitory concentration (MIC) of an object substance with respect to the dominant strain in healthy subjects (RT6 strain) (MICRT6) respectively by the MIC of the object substance with respect to the dominant strain in acne patients (RT4 strain) (MICRT4), and by the MIC of the object substance with respect to the dominant strain in acne patients (RT5 strain) (MICRT5).
The strain-selective antibacterial activity of each test substance (Table 2, right-most column) was evaluated based on the following rating criteria (Table 3). When the strain-selective antibacterial activity is indicated by a numerical range, the rating was based on the minimum value thereof.

The test system of assay [2] is HL053PA1 strain (RT4). As to the kind of experiment: MIC by broth microdilution method, HL053PA1 strain. The conditions noted are these: for MIC: Cutibacterium acnes, read-out: MIC against acne bacterium strain HL053PA1 strain (RT4). How it is done: An MIC is measured herein according to the broth microdilution method which is the standard method of Japanese Society of Chemotherapy.
The antibacterial activity of a test substance was determined based on the minimum inhibitory concentration (MIC). An MIC was measured according to the broth microdilution method which is the standard method of Japanese Society of Chemotherapy.
One-loopful of each acne bacterium strain listed in Table 1 was scraped off and inoculated into 5 mL of a GAM broth slant agar medium (pH 7.0, Nissui Pharmaceutical Co., Ltd.).
The inoculated acne bacterium strain was precultured at 37° C. in a nitrogen atmosphere (anaerobic condition) for 48 hours. The precultured microbial cells were diluted in a modified GAM broth liquid medium (pH 6.0) to a concentration of 5.0×10^4 cfu/mL (viable cell count per OD660=1 is 2.0×10^9 cfu/mL), to prepare strain suspensions.
Each fatty acid (Tokyo Chemical Industry Co., Ltd.) listed in Table 2 was dissolved in dimethylsulfoxide (DMSO) as a solvent such that the concentration became 10,000 μg/mL, and used as a test substance.
Each of strain suspensions (5.0×10^4 cfu/mL) was aliquoted in a 96-well round bottom microplate, each of the test substance (fatty acid concentration 10,000 μg/mL) was added at a 1/10 volume to the aliquot and mixed to prepare measurement samples (fatty acid concentration: 1,000 μg/mL). Measurement samples in 2-fold dilution series were prepared using the strain suspension (fatty acid concentration from 0.48 to 1,000 μg/mL).
[…] The presence or absence of a precipitation of test microbial cells after the incubation was examined and the minimum concentration at which the precipitation of microbial cells […] was regarded as the MIC (μg/mL) of the test substance against the acne bacterium strain.
(Dilution methods test growth across graded concentrations, often in twofold steps.)

The subject of assay [3] is HL043PA1 strain (RT5 strain). Description: Time course of viable cell count, HL043PA1 strain. The conditions noted are these: 15 μg/mL, pH 6.0, anaerobic 37° C., 0 to 44 hours (FIG. 1b). How it is done:
(§1) To each strain suspension (pH 6.0, 5.0×10^5 cfu/mL) of the acne bacterium strain (HL053PA1 strain (RT4 strain), HL043PA1 strain (RT5 strain), and HL110PA3 strain (RT6 strain)) prepared in the same manner as in Example 1, pentadecanoic acid (C15:0) was added to mix together (final concentration of a fatty acid of 15 μg/mL, and final concentration of solvent DMSO of 0.5%), and each the mixture was statically cultured at 37° C. in a nitrogen atmosphere (anaerobic condition). Using a sample to which only DMSO was added at 0.5% (final concentration) as a control, it was confirmed that the influence of the solvent on the growth of each strain could be neglected.
(§2) The viable cell count in the culture solution was measured at 0, 2, 8, 18, 30 and 44 hours after the start of culturing. A viable cell count (cfu/mL) was calculated from the number of emerged colonies after culturing part of the culture solution on a GAM broth agar plate under anaerobic conditions for 3 days (FIG. 1).

In assay [4] the test system is HL053PA1 strain (RT4 strain). Description: Time course of viable cell count, HL053PA1 strain. Conditions: 15 μg/mL, pH 6.0, anaerobic 37° C., 0 to 44 hours (FIG. 1a). How it is done:
as §1, §2

Assay [5] has as its system HL053PA1 strain (RT4 strain) and HL110PA3 strain (RT6 strain). As to the kind of experiment: Coculture test, coculturing strain suspension-1. Details: dose or concentration left out as unconfirmed. The conditions noted are these: pH 6.0, 2 days (FIG. 2a). The text has this:
(§3) Acne bacteria strains (HL053PA1 strain (RT4 strain), HL043PA1 strain (RT5 strain), and HL110PA3 strain (RT6 strain)) were respectively precultured in the same manner as in Example 1.
(§4) The HL053PA1 strain (RT4 strain) and the HL110PA3 strain (RT6 strain) were suspended in a modified GAM broth liquid medium (pH 6.0) respectively at a concentration of 5.0×10^4 cfu/mL. Similarly, the HL043PA1 strain (RT5 strain) and the HL110PA3 strain (RT6 strain) were suspended respectively at a concentration of 5.0×10^4 cfu/mL. The suspensions were respectively designated as coculturing strain suspensions-1, and -2.
(§5) […] Using a sample to which only 0.5% of DMSO was added as a control, it was confirmed that the influence of the solvent on the growth of each bacterium strain could be neglected.
(§6) The test sample was statically cultured under anaerobic conditions at 37° C. for 2 days. After the culture, part of the culture solution was cultured under anaerobic conditions on a GAM broth agar plate (pH 7) for 3 days. The bacterium strains were identified based on the morphology (particularly size) of the emerged colonies, and the viable cell count (cfu/mL) of each bacterium strain was measured. From the measurement results, the proportion of each bacterium strain in the entire microbial cells was calculated (FIG. 2).

In assay [6] the test system is HL110PA3 strain (RT6 strain). Description: Time course of viable cell count, HL110PA3 strain. Conditions: 15 μg/mL, pH 6.0, anaerobic 37° C., 0 to 44 hours (FIG. 1c). The procedure:
as §1, §2

Assay [7] relates to HL043PA1 strain (RT5 strain) and HL110PA3 strain (RT6 strain). As to the kind of experiment: Coculture test, coculturing strain suspension-2. Details: dose or concentration left out as unconfirmed. The conditions noted are these: pH 6.0, 2 days (FIG. 2b).
Source text: as §3, §4, §5, §6

The mark [8] stands for this setting: 48 h, pH 6.0 modified GAM broth, anaerobic, 37° C., 2 days (Example 1).
Where [9] appears, read: 72 h, pH 5.0, estimated from the growth on day 3.
The mark [10] stands for this setting: pH 5.0, estimated from the growth on day 3.

The structures appear in SMILES notation. Converted amounts (≈) assume the structure as drawn. Like-named read-outs stand apart in the source and are kept apart here. Where only a bound is given, the exact number is not on record here.

In the case of `CCCCCCCCCCCCCCCCC(=O)O` [Heptadecanoic acid (C17:0), Heptadecanoic acid], the Strain-selective antibacterial activity was more than 64 in assay [1] (pH 5.5), more than 130 in assay [1] (pH 6.0 (Example 1)), more than 140 in assay [1] (pH 6.5) and 72 in assay [1] (pH 7.0). Further, the “Strain-selective antibacterial activity at each pH” value was more than 64 in assay [1] (pH 5.5 (summary Table 10)), more than 130 in assay [1] (pH 6 (summary Table 10)), more than 140 in assay [1] (pH 6.5 (summary Table 10)) and 72 in assay [1] (pH 7 (summary Table 10)). In addition, the “Strain-selective antibacterial activity over the tested pH range, in words” value in assay [1] is “maintained a high strain-selective antibacterial activity between pH 5.5 and pH 7”. For the same compound, the MIC in assay [2] (setting [8]) was 7.81 µg/mL (≈ 28.9 µM); in assay [2] (setting [9]), more than 1000 µg/mL; in assay [2] (pH 5.5), 15.6 µg/mL (≈ 57.7 µM); in assay [2] (pH 6.5) it was 31.3 µg/mL (≈ 116 µM); in assay [2] (pH 7.0), 62.5 µg/mL (≈ 231 µM). Also, in assay [2] (setting [10]), the “MIC against acne bacterium strain HL053PA1 strain (RT4)” value was more than 1000 µg/mL.
For the compound `CCCCCCCCCCCCCC(=O)O` [Myristic acid (C14:0), Myristic acid], the Strain-selective antibacterial activity is listed as more than 48 in assay [1] (pH 5.0); more than 64 in assay [1] (pH 5.5); 16 in assay [1] (pH 6.0 (Example 1)); more than 5.0 in assay [1] (pH 6.5); 2.0 in assay [1] (pH 7.0). The “Strain-selective antibacterial activity at each pH” value is recorded as more than 48 in assay [1] (pH 5 (summary Table 10)); more than 64 in assay [1] (pH 5.5 (summary Table 10)); 16 in assay [1] (pH 6 (summary Table 10)); more than 5.0 in assay [1] (pH 6.5 (summary Table 10)); 2.0 in assay [1] (pH 7 (summary Table 10)). The MIC in assay [2] (setting [8]) was 15.6 µg/mL (≈ 68.3 µM); in assay [2] (setting [9]) it was 15.6 µg/mL (≈ 68.3 µM); in assay [2] (pH 5.5), 15.6 µg/mL (≈ 68.3 µM); in assay [2] (pH 6.5), 125 µg/mL (≈ 547 µM); in assay [2] (pH 7.0), 250 µg/mL (≈ 1090 µM).
As to `CCCCCCCCCCCCCCCC(=O)O` [Palmitic acid (C16:0), Palmitic acid], the Strain-selective antibacterial activity in assay [1] (pH 5.5) is listed as more than 16; in assay [1] (pH 6.0 (Example 1)) it was more than 130; in assay [1] (pH 6.5), more than 130; in assay [1] (pH 7.0), 40. The “Strain-selective antibacterial activity at each pH” value in assay [1] (pH 5.5 (summary Table 10)) is given as more than 16; in assay [1] (pH 6 (summary Table 10)), more than 130; in assay [1] (pH 6.5 (summary Table 10)), more than 130; in assay [1] (pH 7 (summary Table 10)), 40. The MIC in assay [2] (setting [8]) was 7.81 µg/mL (≈ 30.5 µM); in assay [2] (setting [9]), more than 1000 µg/mL; in assay [2] (pH 5.5), 62.5 µg/mL (≈ 244 µM); in assay [2] (pH 6.5) it was 125 µg/mL (≈ 487 µM); in assay [2] (pH 7.0) it was 62.5 µg/mL (≈ 244 µM). Moreover, in assay [2] (setting [10]), the “MIC against acne bacterium strain HL053PA1 strain (RT4)” value was more than 1000 µg/mL.
Consider `CCCCCCCCCCCCCCC(=O)O` [Pentadecanoic acid (C15:0), Pentadecanoic acid], for which the “Growth of the HL043PA1 strain (RT5 strain), viable cell count time course” value in assay [3] is “suppressed first bacteriostatically and then bactericidally after 10 hours from the start of culturing”. Also, the “Growth of the HL053PA1 strain (RT4 strain), viable cell count time course” value in assay [4] was “bacteriostatically suppressed”. Further, the “Growth of the dominant strain in acne patients in coculture with RT6 strain” value in assay [5] and in assay [7] was “suppressed selectively” in each case. The Strain-selective antibacterial activity in assay [1] (pH 5.0) was more than 96; in assay [1] (pH 5.5), more than 260; in assay [1] (pH 6.0 (Example 1)), 130; in assay [1] (pH 6.5), more than 96; in assay [1] (pH 7.0), 260. Further, the “Strain-selective antibacterial activity at each pH” value in assay [1] (pH 5 (summary Table 10)) was more than 96; in assay [1] (pH 5.5 (summary Table 10)), more than 260; in assay [1] (pH 6 (summary Table 10)), 130; in assay [1] (pH 6.5 (summary Table 10)) it was more than 96; in assay [1] (pH 7 (summary Table 10)), 260. For the same compound, the “Strain-selective antibacterial activity over the tested pH range, in words” value in assay [1] is “maintained a high strain-selective antibacterial activity over the entire pH range tested (pH 5 to 7)”. Also, the MIC in assay [2] (setting [8]) was 1.95 µg/mL (≈ 8.04 µM); in assay [2] (setting [9]) it was 7.81 µg/mL (≈ 32.2 µM); in assay [2] (pH 5.5), 3.9 µg/mL (≈ 16.1 µM); in assay [2] (pH 6.5) it was 3.9 µg/mL (≈ 16.1 µM); in assay [2] (pH 7.0) it was 3.9 µg/mL (≈ 16.1 µM). Further, the “Growth of the HL110PA3 strain (RT6 strain), viable cell count time course” value in assay [6] is “not suppressed”.

Broadly, the MIC is the smallest concentration in the dilution series that meets the test's criterion for growth inhibition.

The values are drawn from patent US20190247353A1, “ACNE STRAIN-SELECTIVE ANTIBACTERIAL AGENT” (MOMOTANI JUNTENKAN CO., LTD., priority 2016, published 2019).
